Legend:
Format in all cases: functional
[1] = system: Radical scavenging activity; assay: Antioxidant activity against DPPH free radical assessed as compound able to consume half the initial amount of DPPH free radical after 30 to 60 mins by spectrophotometry
[2] = system: Bacillus subtilis; assay: Antimicrobial activity against Bacillus subtilis after 24 hrs by disc diffusion method; further: test concentration or dose not given here
[3] = system: Radical scavenging activity; assay: Antioxidant activity against DPPH free radical assessed as compound able to consume half the initial amount of DPPH free radical by spectrophotometry; details: TDE = time-dependent effect
[4] = system: Staphylococcus aureus; assay: Antimicrobial activity against Staphylococcus aureus after 24 hrs by disc diffusion method; further: test concentration or dose not given here
[5] = system: Pseudomonas aeruginosa; assay: Antimicrobial activity against Pseudomonas aeruginosa after 24 hrs by disc diffusion method; further: test concentration or dose not given here
[6] = system: Escherichia coli; assay: Antimicrobial activity against Escherichia coli after 24 hrs by disc diffusion method; further: test concentration or dose not given here

SMILES | IC50 [1] [µM] | inhibition zone (IZ) [2] [mm] | Activity [3] | Activity [1] | inhibition zone (IZ) [4] [mm] | inhibition zone (IZ) [5] [mm] | inhibition zone (IZ) [6] [mm]
O=C1O[C@H]([C@@H](O)CO)C(O)=C1O [ASCORBIC ACID] | 9.2 | – | – | – | – | – | –
CC1=NC(=S)N(n2c(CCl)nc3ccccc3c2=O)C(=O)C1/N=N/c1cccc(C)c1O (centres undefined) | 3.5 | 36.5 | tde | Dose-dependent effect | 44.5 | 23.5 | 27.5
CC1=NC(=S)N(n2c(CCl)nc3ccccc3c2=O)C(=O)C1/N=N/c1ccc(O)c([N+](=O)[O-])c1 (centres undefined) | 8.6 | 20 | tde | Dose-dependent effect | 29 | 12 | 14
CC1=NC(=S)N(n2c(CCl)nc3ccccc3c2=O)C(=O)C1/N=N/c1ccccc1 (centres undefined) | – | 16.2 | tde | Dose-dependent effect | 24.5 | 7 | 11.5
CC1=NC(=S)N(n2c(CCl)nc3ccccc3c2=O)C(=O)C1/N=N/c1ccc(O)c(O)c1 (centres undefined) | 1.4 | 27 | tde | Dose-dependent effect | 31.5 | 16 | 17.5
CC1(C)S[C@@H]2[C@H](NC(=O)[C@H](N)c3ccccc3)C(=O)N2[C@H]1C(=O)O [AMPICILLIN] | – | 40 | – | – | 36 | 20 | 28
CC1=NC(=S)N(n2c(CCl)nc3ccccc3c2=O)C(=O)C1/N=N/c1ccc(C)cc1O (centres undefined) | 5.1 | 33 | tde | Dose-dependent effect | 39 | 22 | 25
CC1=NC(=S)N(n2c(CCl)nc3ccccc3c2=O)C(=O)C1/N=N/c1ccc(O)cc1 (centres undefined) | 5.4 | 18.5 | tde | Dose-dependent effect | 27 | 10 | 13.5

Second part, led by results:

IC50 [1] [µM] | SMILES | inhibition zone (IZ) [2] [mm] | Activity [3] | Activity [1] | inhibition zone (IZ) [4] [mm] | inhibition zone (IZ) [5] [mm] | inhibition zone (IZ) [6] [mm]
2.1 | CC1=NC(=S)N(n2c(CCl)nc3ccccc3c2=O)C(=O)C1/N=N/c1ccc(O)cc1O (centres undefined) | 24.5 | tde | Dose-dependent effect | 30 | 13.5 | 15.5
3 | COc1ccc(/N=N/C2C(=O)N(n3c(CCl)nc4ccccc4c3=O)C(=S)N=C2C)cc1O (centres undefined) | 42.1 | tde | Dose-dependent effect | 47.5 | 28 | 30
8.3 | CC1=NC(=S)N(n2c(CCl)nc3ccccc3c2=O)C(=O)C1/N=N/c1cccc(Cl)c1O (centres undefined) | 31.5 | tde | Dose-dependent effect | 33.5 | 21.5 | 20.9
7 | CC1=NC(=S)N(n2c(CCl)nc3ccccc3c2=O)C(=O)C1/N=N/c1ccc(Cl)cc1O (centres undefined) | 29 | tde | Dose-dependent effect | 33 | 18.5 | 20.5
